For orientation: IC50 means the concentration needed to halve the response being measured.

Drawing on PubChem BioAssay AID602484 (Southern Research Specialized Biocontainment Screening …, 2012), this text covers IC50 for 3 compounds.

Molecules are shown by their SMILES.

For the assay, the system named is VEEV TrD infected cells, CPE inhibition. In words: CPE inhibition in VEEV TrD infected cells, confirmatory dose response (AID 602484).
Regarding `CN(C(=O)Cc1cccs1)c1nc2c(s1)CCCC2`, the IC50 is 2030 nM.
For `CCN1CCN(Cc2nc3ccc([N+](=O)[O-])cc3c(=O)n2-c2ccccc2F)CC1` the value was 370 nM; for `CN1CCN(Cc2nc3ccc([N+](=O)[O-])cc3c(=O)n2-c2ccccc2F)CC1`, 270 nM.
